In patent publication US5859067A, “Use of natural products and related synthetic compounds for the treatment of cardiovascular disease” (priority 1993, dated 1999):
Values joined by “and” are separate entries in the source; they are usually repeats but may differ in a detail not shown here. Equal entries are not always repeated. Where two headings read alike, the source gives them in different places.

Experiments:
[1] = molecular target: T1, human erythrocyte plasma membrane Ca^2+ -ATPase (Homo sapiens, UniProt P23634); test: Ca^2+ -ATPase assay (erythrocyte membranes; Table 1); assay type: biochemical; conditions: for inhibition at 100 µM / inhibition at 50 µM: read-out: INHIBITION OF Ca^2+ -ATPase PERCENT (%)
T1 construct: Calmodulin-depleted erythrocyte membranes were prepared by continuous filtration through a hollow fibre; tissue New South Wales Red Cross Transfusion Service, Sydney; host or cells: human packed red blood cells (calmodulin-depleted erythrocyte membranes)
T1 sequence (P23634 1-1205 isoform P23634-6): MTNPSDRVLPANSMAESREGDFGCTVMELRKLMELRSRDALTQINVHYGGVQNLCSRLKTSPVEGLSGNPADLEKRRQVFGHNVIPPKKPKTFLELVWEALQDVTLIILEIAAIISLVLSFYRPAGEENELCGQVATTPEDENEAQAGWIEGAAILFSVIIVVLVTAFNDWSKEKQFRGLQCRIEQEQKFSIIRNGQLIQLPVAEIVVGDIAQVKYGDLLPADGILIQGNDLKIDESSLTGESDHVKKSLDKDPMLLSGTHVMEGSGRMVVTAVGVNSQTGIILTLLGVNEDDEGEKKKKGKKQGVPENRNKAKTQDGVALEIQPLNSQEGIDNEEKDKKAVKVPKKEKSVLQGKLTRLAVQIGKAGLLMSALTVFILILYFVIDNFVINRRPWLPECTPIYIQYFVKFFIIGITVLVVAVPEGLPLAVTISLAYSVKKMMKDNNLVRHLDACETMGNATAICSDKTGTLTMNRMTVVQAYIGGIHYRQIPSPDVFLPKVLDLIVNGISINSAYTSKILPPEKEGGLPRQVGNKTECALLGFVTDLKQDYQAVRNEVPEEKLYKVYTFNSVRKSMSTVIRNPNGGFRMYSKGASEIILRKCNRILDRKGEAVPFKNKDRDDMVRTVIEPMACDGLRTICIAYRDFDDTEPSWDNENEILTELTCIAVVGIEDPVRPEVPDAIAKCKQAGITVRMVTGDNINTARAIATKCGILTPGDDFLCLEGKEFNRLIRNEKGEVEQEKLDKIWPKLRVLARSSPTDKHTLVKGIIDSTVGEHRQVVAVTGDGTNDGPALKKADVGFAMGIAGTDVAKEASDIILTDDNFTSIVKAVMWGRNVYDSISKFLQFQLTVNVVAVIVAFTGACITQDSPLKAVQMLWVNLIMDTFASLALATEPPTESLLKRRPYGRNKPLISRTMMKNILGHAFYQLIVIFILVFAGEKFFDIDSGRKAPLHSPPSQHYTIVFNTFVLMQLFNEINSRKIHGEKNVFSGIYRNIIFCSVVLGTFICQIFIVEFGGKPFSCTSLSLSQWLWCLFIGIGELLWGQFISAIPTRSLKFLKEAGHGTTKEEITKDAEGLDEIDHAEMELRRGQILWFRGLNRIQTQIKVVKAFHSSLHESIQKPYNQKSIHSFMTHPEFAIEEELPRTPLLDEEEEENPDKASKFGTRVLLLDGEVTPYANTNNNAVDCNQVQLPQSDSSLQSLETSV
T1 sequence (P35613 140-385 partner limits assumed): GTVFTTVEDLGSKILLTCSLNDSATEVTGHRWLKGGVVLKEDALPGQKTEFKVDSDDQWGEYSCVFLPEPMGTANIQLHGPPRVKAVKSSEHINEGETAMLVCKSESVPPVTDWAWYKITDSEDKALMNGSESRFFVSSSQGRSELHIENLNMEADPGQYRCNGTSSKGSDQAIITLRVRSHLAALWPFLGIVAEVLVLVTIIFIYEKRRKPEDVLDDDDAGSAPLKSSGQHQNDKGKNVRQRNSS
Method: Natural and synthetic compounds of formula (I) were tested for their ability to influence human erythrocyte plasma membrane Ca^2+ -ATPase.
Packed cells were obtained from the New South Wales Red Cross Transfusion Service, Sydney. The whole preparation was carried out at 4° C. 1 unit of packed red cells was washed 3 times with isotonic buffer, containing 130 mM KCl, 20 mM Tris-HCl (pH 7.4), and the cells were collected by centrifugation at 4,000 RPM. The cells were haemolysed by the buffer containing 1 mM EDTA, 10 mM Tris-Hcl (pH 7.4), 0.5 mM PMSF (phenylmethyl sulfonyl fluoride). The haemolyzate mixture was passed through the hollow fibre system until the membrane appeared white, and then washed with 10 mM potassium Hepes (pH 7.4). The membranes were collected by centrifugation at 10,000 RPM for 20 min, the membranes were resuspended in storage buffer containing 130 mM KCl, 2 mM dithiothreitol, 0.5 mM MgCl2, 20 mM potassium-Hepes (pH 7.5). The membranes with protein concentration of 1.5-5.4 mg/ml were stored at -80° C. until required.
Erythrocyte membranes (0.071-0.098 mg/ml) were incubated at 37° C. for one hour in a total volume of 0.4 ml of 65 mM KCl, 20 mM potassium-Hepes, 5 mM MgCl2, 50 μM CaCl2, 0.1 μm calmodulin, 0.1 mM EGTA. The reaction was started by adding 2 mM ATP(pH 7.4). […] The activity of the Mg^2+ -ATPase (assayed in the absence of added CaCl2) was subtracted from the total activity assayed in the presence of Ca^2+. […] A concentrated solution of the test substances was added to the reaction medium before adding ATP.

[2] = tested on: brine shrimp (Artemia salina Leach); test: Brine shrimp toxicity bioassay; assay type: in vivo; conditions: for LC50: read-out: LC50 brine shrimp
Method: There are many applications of the assay including analysis of toxic substances, anaesthetics, morphine-like substances and cocarcinogenicity of phorbol esters.
6 (K Hostettman, ed.), Academ Press, London, 1-32. DMSO solutions of the substances to be tested were added directly to the vials containing the brine shrimp. As the concentration of DMSO that we wished to use was higher than the recommended 1% v/v testing of the toxicity of the DMSO was therefore necessary.
Brine shrimp toxicity was assayed, except for some minor modifications, according to the method of McLaughlin et al as reported in Brine Shrimp: A convenient general bioassay for active plant constituents, B N Meyer, N R Ferrigni, J E Putman, L B Jacobsen, D E Nhols and J L McLaughlin. […] J L McLaughlin. […] 6 (K Hostettman, ed.), Academ Press, London, 1-32. Ten shrimp were added transferred to each of the vials and the volume adjusted to 4.9 mL. Each dose was performed in triplicate, including the control. In quick succession, the appropriate volume of additional DMSO for each dose, required to achieve a final concentration of 2%, was added before the appropriate volume of test solution. The vials were gently mixed and the time noted. After 24 hours, the number of survivors were counted and % mortality was determined.
The LC50 values were expressed in both μM and μg/mL.

[3] = read-out: INHIBITION OF Ca^2+ -ATPase IC50
[4] = Artemia salina, 24 h, read-out: % Deaths

Row | Compound | inhibition at 100 µM ([1]; at 100 μM) [%] | IC50 [1, 3] [µM] | LC50 ([2]; Artemia salina, 24 hours) | other results
1 | CCCCCCCCCc1cccc(O)c1 [3-nonylphenol] |  |  |  | IC50 [1]: 64 µM; inhibition at 100 µM [1]: 69%; LC50 ([2]; Artemia salina, 24 h): 320 nM and 0.07 µg/mL
2 | CCCCCCCCCCCCCc1cc(O)cc(O)c1 [grevillol, 5-tridecylresorcinol] | 44 | 143 | 2.8 µM and 0.8 µg/mL | Ca^2+ -ATPase inhibitory activity (in words) [1]: weak; toxicity to brine shrimp (in words) ([2]; 24 hours): moderately toxic
3 | nonylphenol [nonylphenol (commercial), reference compound] |  | 27.5 |  | INHIBITION OF Ca^2+ -ATPase PERCENT (%) ([1]; at 100 μM): 100%
4 | CCCCCCCCCc1ccc(O)cc1 [4-nonylphenol] |  |  |  | IC50 [1]: 114 µM; inhibition at 100 µM [1]: 22%; LC50 ([2]; Artemia salina, 24 h): 400 nM and 0.088 µg/mL
5 | CCCCCCCCCCc1cc(O)cc(O)c1C(=O)OCC [ethyl 2,4-dihydroxy-6-decylbenzoate] | 60 | 85 | 2.3 µM and 0.75 µg/mL | 
6 | CC(C)(C)c1cc(O)c(O)c(C(C)(C)C)c1 [3,5-di-tert-butyl-catechol, reference compound] | 76 | 84 |  | 
7 | Oc1cc(O)cc(CCCCCCCCCCCCCCc2cc(O)cc(O)c2)c1 [bisnorstriatol, 1,14-bis(3,5-dihydroxyphenyl)tetradecane] | 35 | > 100 | 40 µM and 17 µg/mL | inhibition at 500 µM ([1]; at 500 μM): 69.1%; toxicity to brine shrimp (in words) ([2]; 24 hours): relatively low toxicity
8 | CCCCCCCCCc1c(Br)c(O)c(Br)c(O)c1C(=O)OCC [ethyl 3,5-dibromo-2,4-dihydroxy-6-nonylbenzoate] | 95 | 44 | 780 nM and 0.36 µg/mL | 
9 | Cc1cc(CCCCCCCCCCc2cccc(C)c2O)ccc1O [1-(2-hydroxy-3-methylphenyl)-10-(4-hydroxy-3-methylphenyl)decane] |  |  | 2.2 µM and 0.78 µg/mL | 
10 | CCCCCc1cc(O)cc(O)c1 [5-pentylresorcinol (olivetol), 5-pentylresorcinol, reference compound] |  |  |  | LC50 ([2]; Artemia salina, 24 h): > 100 µM and > 18 µg/mL
11 | CCCCCCCCCc1cc(O)cc(O)c1 [5-nonylresorcinol] | 44 | 108 | > 100 µM and > 18 µg/mL | 
12 | CCCCCCCCCc1cc(O)cc(O)c1C(=O)OCC [ethyl 2,4-dihydroxy-6-nonylbenzoate] | 73 | 62 | 2.6 µM and 0.8 µg/mL | 
13 | Oc1ccc(CCCCCCCCCCc2ccccc2O)cc1 [1-(2-hydroxyphenyl)-10-(4-hydroxyphenyl)decane] |  | 12 | 350 nM and 0.11 µg/mL | inhibition at 50 µM [1]: 100%
14 | CCCCCCCCCCc1ccccc1O [2-decylphenol] | 85 | 42 | 680 nM and 0.16 µg/mL | 
15 | CC(C)=CCC/C(C)=C/CC/C(C)=C/Cc1c(C)cc(O)cc1O [neogrifolin, 4-E,E-farnesyl-5-methyl-resorcinol] | 100 | 23.3 | 28 µM and 9 µg/mL | Ca^2+ -ATPase inhibitory activity (in words) [1]: most potent among the alkyl and alkenyl resorcinols tested; relative toxicity to brine shrimp ([2]; neogrifolin compared with grifolin): about ten-fold weaker
16 | CCCCCCCCc1ccccc1O [2-octylphenol] |  |  |  | IC50 [1]: 32 µM; inhibition at 100 µM [1]: 100%; LC50 ([2]; Artemia salina, 24 h): 1.5 µM and 0.31 µg/mL
17 | Cc1c(O)cc(CCCCCCCCCCCCc2cc(O)c(C)c(O)c2)cc1O [1,12-bis(3,5-dihydroxy-4-methylphenyl)dodecane] |  |  | > 25 µM and > 10 µg/mL | 
18 | CCCCCCCCCCCCc1cc2c(C)cc(=O)oc2cc1O [6-dodecyl-7-hydroxy-4-methylcoumarin] |  |  | > 25 µM and > 8.1 µg/mL | 

Row | Compound | inhibition at 100 µM ([1]; at 100 μM) [%] | IC50 [1, 3] [µM] | LC50 ([2]; Artemia salina, 24 hours) | other results
19 | Oc1ccccc1CCCCCCCCCCCCCCc1ccccc1O [1,14-bis(2-hydroxyphenyl)tetradecane] | 84 | 28 | 1.9 µM and 0.72 µg/mL | 
20 | Oc1ccc(CCCCCCCCCCCCCCc2ccccc2O)cc1 [1-(2-hydroxyphenyl)-14-(4-hydroxyphenyl)tetradecane] | 60 | 81 | 3.7 µM and 1.4 µg/mL | 
21 | Cc1c(O)cc(CCCCCCCCCCCCCCc2cc(O)cc(O)c2)cc1O [grebustol-A, 1-(3,5-dihydroxy-phenyl)-14-(3,5-dihydroxy-4-methylphenyl)tetradecane] |  | 17 |  | inhibition at 50 µM [1]: 100%
22 | Oc1ccc(CCCCCCCCCCc2ccc(O)cc2)cc1 [1,10-bis(4-hydroxyphenyl)decane] | 52 | 93 | 810 nM and 0.26 µg/mL | 
23 | Cc1c(O)cc(CCCCCCCCCCc2cc(O)c(C)c(O)c2)cc1O [1,10-bis(3,5-dihydroxy-4-methylphenyl)decane] |  |  | > 25 µM and > 9.7 µg/mL | 
24 | Oc1ccc(CCCCCCCCCCCCCCc2ccc(O)cc2)cc1 [1,14-bis(4-hydroxyphenyl)tetradecane] | 5 | 280 | 7.9 µM and 3.7 µg/mL | 
25 | CCCCCCCCCc1cc(O)c(C)c(O)c1 [2-methyl-5-nonyl-resorcinol] |  |  | 8.3 µM and 2.1 µg/mL | 
26 | CCCCCCCCCCc1c(Br)c(O)c(Br)c(O)c1C(=O)OCC [ethyl 3,5-dibromo-2,4-dihydroxy-6-decylbenzoate] | 73 | 69 | 780 nM and 0.37 µg/mL | 
27 | CC(C)(C)c1cc(C(C)(C)C)c(O)c(C(C)(C)C)c1 [2,4,6-tri-tert-butylphenol, reference compound] | 79 |  |  | IC50 [1]: 15 µM
28 | Oc1ccc(CCCCCCCCCCCCc2ccc(O)cc2)cc1 [1,12-bis(4-hydroxyphenyl)dodecane] |  |  | 3.8 µM and 1.4 µg/mL | 
29 | Cc1cc(C(C)(C)C)c(O)c(C(C)(C)C)c1 [BHT, 2,6-di-tert-butyl-4-methylphenol, reference compound] | 69 | 66 |  | 
30 | CCCCCCCCC(=O)c1ccc(O)cc1 [4-nonanoylphenol] |  |  | 100 nM and 0.024 µg/mL | LC50 ([2]; 24 hours): 0.1 µM
31 | Oc1cc(O)cc(CCCCC/C=C\CCCCCCCc2cc(O)cc(O)c2)c1 [grebustol-B, 1,14-bis(3,5-dihydroxyphenyl)tetradec-Z-6-ene] | 90 | 50 |  | Ca^2+ -ATPase inhibitory activity (in words) [1]: weaker
32 | C[S+](C)[O-] [DMSO, dimethyl sulfoxide] |  |  |  | toxicity to brine shrimp (in words) ([2]; 24 hours): No toxicity towards brine shrimp was observed; mortality at 1 % [2, 4]: 0%; mortality at 2 % [2, 4]: 0%; mortality at 3 % [2, 4]: 0%; mortality at 4 % [2, 4]: 0%; mortality at 5 % [2, 4]: 9%; mortality at 7 % [2, 4]: 12%; mortality at 9 % [2, 4]: 18%; mortality at 11 % [2, 4]: 57%; mortality at 13 % [2, 4]: 96%; mortality at 15 % [2, 4]: 100%; mortality at 20 % [2, 4]: 100%; mortality at 25 % [2, 4]: 100%; LC50 brine shrimp, solvent ([2]; solvent): 11 % v/v
33 | CCCCCCCCCCCCCCCCCc1cc(O)cc(O)c1 [5-heptadecylresorcinol] |  |  | > 100 µM and > 18 µg/mL | 
34 | Cc1cc(Cc2cc(C)cc(C(C)(C)C)c2O)c(O)c(C(C)(C)C)c1 [2,2'-methylenebis(4-methyl-6-tert-butylphenol), reference compound] |  | 45 |  | inhibition at 100 µM [1]: 74%
35 | Cc1c(O)cc(CCCCCCCCc2cc(O)c(C)c(O)c2)cc1O [1,8-bis(3,5-dihydroxy-4-methylphenyl)octane] |  |  | > 25 µM and > 9 µg/mL | 
36 | CC(C)(C)CC(C)(C)c1ccc(O)cc1 [4-tert-octylphenol, reference compound] |  |  |  | IC50 [1]: 60 µM; inhibition at 100 µM [1]: 94%
